In article PMC3112458, “Marked increase in etravirine and saquinavir plasma concentrations during atovaquone/proguanil prophylaxis” (Malaria Journal, 2011):
Read-outs that look alike come from different tables or passages of the source.

How the values were obtained:
[1] = design: method as in PMID 17297027; details: cited from earlier work
[2] = design: method as in PMID 17297027; details: cited from earlier work; remark: listed apart in the source
[3] = design: method as in PMID 20299957; details: cited from earlier work
[4] = 12 hour-PK of anti-retrovirals before and at day 20 of atovaquone/proguanil prophylaxis (HPLC-UV, plasma); assay type: in vivo, human; details: for Δ AUC0-12h (during prophylaxis AUC minus pre-prophylaxis AUC): plasma, one HIV patient, day 20 of atovaquone/proguanil 250/100 mg daily vs before prophylaxis
Experimental: In September 2009, the patient planned to spend a two-week holiday in Kenya. […] Standard malaria prophylaxis with atovaquone/proguanil fixed-dose combination (250/100 mg) was prescribed: one tablet daily starting two days before the journey and ending the treatment seven days after return to Italy. A 12 hour-PK of anti-retrovirals was performed before starting prophylaxis with atovaquone/proguanil (Figure 1). The samples were collected in fasting status following this order: the first sample 12 hours after the last dose of anti-retrovirals (pre-dose); the second sample one hour after breakfast and anti-retrovirals consumption; the following samples at 2, 4, 6 and 12 hours post anti-retrovirals' intake. The second PK for the determination of anti-retrovirals' plasma concentrations during atovaquone/proguanil prophylaxis was collected at day 20 on prophylaxis with the same timing plan (Figure 1). In order to avoid any food interference with the PK results, the same diet was administered in both the PK sampling days.

[5] = tested on: CYP3A; design: method as in PMID 19725591; details: cited from earlier work
[6] = tested on: CYP2C9, 2C19 and P-glycoprotein; design: method as in PMID 19725591; details: cited from earlier work
[7] = tested on: P450 system; design: method as in PMID 9530286, PMID 9835508; details: cited from earlier work
[8] = tested on: P-glycoprotein and MRP1; design: method as in PMID 9530286, PMID 9835508; details: cited from earlier work

In the case of `O=C1C(O)=C([C@H]2CC[C@H](c3ccc(Cl)cc3)CC2)C(=O)c2ccccc21` [atovaquone], the elimination half-life ([1]; adults) is listed as 48 to 72 h, the “drug excreted unchanged in the faeces” value [1] is listed as 94% and the protein-bound [2] is listed as greater than 99%. For the same compound, the “geometric mean ratio (95% confidence interval) of AUC of atovaquone” value ([3]; patients on atazanavir/ritonavir compared with healthy volunteers) was 0.54 (0.35-0.83), the “geometric mean ratio (95% confidence interval) of AUC of atovaquone” value ([3]; patients on efavirenz compared with healthy volunteers) was 0.25 (0.16-0.38) and the “geometric mean ratio (95% confidence interval) of AUC of atovaquone” value ([3]; patients on lopinavir/ritonavir compared with healthy volunteers) was 0.26 (0.17-0.41).

For `Cc1cc(C#N)cc(C)c1Oc1nc(Nc2ccc(C#N)cc2)nc(N)c1Br` [etravirine], the “Δ AUC0-12h (during prophylaxis AUC minus pre-prophylaxis AUC)” value [4] is given as “+55%”, the “induction of CYP3A” value [5] is given as “inducer” and the “inhibition of CYP2C9, 2C19 and P-glycoprotein” value [6] is given as “mild inhibitor”.

In the case of `[H]/N=C(\N/C(=N/[H])Nc1ccc(Cl)cc1)NC(C)C` [proguanil], the absolute bioavailability [1] is given as no more than 60%, the elimination half-life [1] is given as 12 to 21 h and the “time to peak plasma concentrations” value [1] is given as 2 to 4 h. The protein-bound [2] was 75% and the plasma concentrations lower ([3]; patients on efavirenz, lopinavir/ritonavir or atazanavir/ritonavir compared with healthy volunteers) was 38-43%.

In the case of `Cc1nnc(C(=O)NC(C)(C)c2nc(C(=O)NCc3ccc(F)cc3)c(O)c(=O)n2C)o1` [raltegravir], the “Tmax and Cmax in post-prophylaxis versus pre-prophylaxis” value ([4]; PK profiles, day 20 of atovaquone/proguanil prophylaxis) is reported as “earlier” and the “Δ AUC0-12h (during prophylaxis AUC minus pre-prophylaxis AUC)” value [4] is reported as -23%.

In the case of `CC(C)(C)NC(=O)[C@@H]1C[C@@H]2CCCC[C@@H]2CN1C[C@@H](O)[C@H](Cc1ccccc1)NC(=O)[C@H](CC(N)=O)NC(=O)c1ccc2ccccc2n1` [saquinavir], the “Δ AUC0-12h (during prophylaxis AUC minus pre-prophylaxis AUC)” value [4] is given as “+274%”, the “induction or inhibition of P450 system” value [7] is given as “neither an inducer nor an inhibitor” and the “interaction with P-glycoprotein and MRP1” value [8] is given as “substrate and inhibitor”.
